IC50 data for 61 molecules are collected here from US20250171459A1, “2-METHYL-4',5'-DIHYDROSPIRO[PIPERIDINE-4,7'-THIENO[2,3-C]PYRAN] DERIVATIVES AS INHIBITORS OF APOL1 AND METHODS OF USING SAME” (Vertex Pharmaceuticals Incorporated, priority 2022, published 2025).

This test deals with T1, APOL1 (Homo sapiens, UniProt O14791).
T1 sequence (O14791 1-398 S342G/I384M): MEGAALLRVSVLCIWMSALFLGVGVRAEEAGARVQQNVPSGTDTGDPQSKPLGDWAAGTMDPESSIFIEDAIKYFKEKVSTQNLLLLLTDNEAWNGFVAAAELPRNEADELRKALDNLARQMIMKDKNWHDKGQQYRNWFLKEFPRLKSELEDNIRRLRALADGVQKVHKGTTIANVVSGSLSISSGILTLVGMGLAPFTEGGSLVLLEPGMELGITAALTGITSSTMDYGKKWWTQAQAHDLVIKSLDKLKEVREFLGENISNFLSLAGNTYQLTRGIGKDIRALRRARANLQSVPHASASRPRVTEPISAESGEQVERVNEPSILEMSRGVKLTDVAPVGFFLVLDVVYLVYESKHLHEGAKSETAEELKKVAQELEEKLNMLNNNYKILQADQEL
As to the kind of experiment: MultiTox-Fluor Multiplex Cytotoxicity Assay in tet-inducible APOL1 T-REx-HEK293 cells (cell rescue, ratio of dead to live cells). The format is cell-based. Conditions: tet-inducible transgenic APOL1 T-REx-HEK293 cell lines, 50 ng/mL tet, 24 hours; read-out: IP50 (i.e., IC50 for cell proliferation). In a few lines: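 T-REx-HEK293 cells with tet-inducible APOL1 were treated with compound (10 μM top, 10-point 3-fold dilution, duplicate) plus 50 ng/mL tetracycline for 24 h at 37° C, in DMEM with 2% tet-free FBS. MultiTox-Fluor protease signals gave a dead/live ratio, normalized to no tet (100% viability) and tet alone (0%).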

As to `CCc1cc2c(s1)CCOC21CCN(Cc2ccc(C(=O)N[C@H]3CC[C@H](O)CC3)nc2)CC1` [Compound 1043, 5-((2′-ethyl-6′,7′-dihydrospiro[piperidine-4,4′-thieno[3,2-c]pyran]-1-yl)methyl)-N-((1r,4r)-4-hydroxycyclohexyl)picolinamide], the IC50 is less than 100 nM.

For `CCc1cc2c(s1)CCOC21CCN(Cc2ccc(C(=O)Nc3c[nH]c4ccccc34)nc2)CC1` [Compound 1044], the IC50 was less than 100 nM.

Take `CCc1cc2c(s1)CCOC21CCN(Cc2ccc(C(=O)NC(C)(CC)CO)nc2)CC1` (stereo not shown) [Compound 1045]: the IC50 was less than 100 nM.

With `CCc1cc2c(s1)CCOC21CCN(Cc2ccc(C(=O)N[C@H](C)CO)nc2)CC1` [Compound 1046], the IC50 was less than 100 nM.

For the molecule `CCc1cc2c(s1)CCOC21CCN(Cc2ccc(C(=O)NC(C)(C)CO)nc2)CC1` [Compound 1047], the IC50 was less than 100 nM.

In the case of `CCc1cc2c(s1)CCOC21CCN(Cc2ccc(C(=O)Nc3cccc4cc[nH]c34)nc2)CC1` [Compound 1048], the IC50 is less than 100 nM.

For `CCc1cc2c(s1)CCOC21CCN(Cc2ccc(C(=O)NCCC(=O)N3CCCC3)nc2)CC1` [Compound 1049], the IC50 was less than 100 nM.

For the molecule `CCc1cc2c(s1)CCOC21CCN(Cc2ccc(C(=O)N3CC(CO)C3)nc2)CC1` [Compound 1050], the IC50 is less than 100 nM.

Take `CCc1cc2c(s1)CCOC21CCN(Cc2ccc(C(=O)Nc3ccn(C)n3)nc2)CC1` [Compound 1051]: the IC50 was less than 100 nM.

Consider `CCc1cc2c(s1)CCOC21CCN(Cc2ccc(C(=O)Nc3ccnn3C)nc2)CC1` [Compound 1052], for which the IC50 was less than 100 nM.

`CCc1cc2c(s1)CCOC21CCN(Cc2ccc(C(=O)N[C@H](CC)CO)nc2)CC1` [Compound 1053]: the IC50 is less than 100 nM.

For `CCc1cc2c(s1)CCOC21CCN(Cc2ccc(C(=O)NC(C)CCO)nc2)CC1` (stereo not shown) [Compound 1054], the IC50 was less than 100 nM.

Take `CCc1cc2c(s1)CCOC21CCN(Cc2ccc(C(=O)NC3CC(O)C3)nc2)CC1` (stereo not shown) [Compound 1055]: the IC50 was less than 100 nM.

As to `CCc1cc2c(s1)CCOC21CCN(Cc2ccc(C(=O)NCCO)nc2)CC1` [Compound 1056], the IC50 lay within 100 to 500 nM.

Take `CCc1cc2c(s1)CCOC21CCN(Cc2ccc(C(=O)NC(CO)CO)nc2)CC1` [Compound 1057]: the IC50 was 100 to 500 nM.

For the molecule `CCc1cc2c(s1)CCOC21CCN(Cc2ccc(C(=O)NC3CCCC3=O)nc2)CC1` (stereo not shown) [Compound 1058], the IC50 is 100 to 500 nM.

Take `CCc1cc2c(s1)CCOC21CCN(Cc2ccc(C(=O)NCc3ccn(C)n3)nc2)CC1` [Compound 1059]: the IC50 was in the range of 100 to 500 nM.

With `CCc1cc2c(s1)CCOC21CCN(Cc2ccc(C(=O)NCC3CCC(O)C3)nc2)CC1` (stereo not shown) [Compound 1060], the IC50 lay in the range of 100 to 500 nM.

`CCc1cc2c(s1)CCOC21CCN(Cc2ccc(C(=O)NCC(C)O)nc2)CC1` (stereo not shown) [Compound 1061]: the IC50 lay in the range of 100 to 500 nM.

In the case of `CCc1cc2c(s1)CCOC21CCN(Cc2ccc(C(=O)NCC3(C)CCOC3)nc2)CC1` (stereo not shown) [Compound 1062], the IC50 was in the range of 100 to 500 nM.

On to `CCc1cc2c(s1)CCOC21CCN(Cc2ccc(C(=O)NCCOCCO)nc2)CC1` [Compound 1063], for which the IC50 was in the range of 100 to 500 nM.

With `CCc1cc2c(s1)CCOC21CCN(Cc2ccc(C(=O)NC3CC(C)(O)C3)nc2)CC1` (stereo not shown) [Compound 1064], the IC50 fell in the range of 100 to 500 nM.

As for `CCc1cc2c(s1)CCOC21CCN(Cc2ccc(C(=O)N(C)[C@H]3CC[C@H](O)CC3)nc2)CC1` [Compound 1065], the IC50 fell in the range of 500 to 1000 nM.

Consider `CCc1cc2c(s1)CCOC21CCN(Cc2ccc(N3C[C@@H](O)[C@H](O)C3)nc2)CC1` [Compound 1066, (3R,4R)-1-(5-((2′-ethyl-6′,7′-dihydrospiro[piperidine-4,4′-thieno[3,2-c]pyran]-1-yl)methyl)pyridin-2-yl)pyrrolidine-3,4-diol], for which the IC50 was less than 100 nM.

In the case of `CCc1cc2c(s1)CCOC21CCN(Cc2ccc(N[C@H]3CC[C@H](O)CC3)nc2)CC1` [Compound 1067], the IC50 is less than 100 nM.

Take `CCc1cc2c(s1)CCOC21CCN(Cc2ccc(NCC3CCOCC3)nc2)CC1` [Compound 1068]: the IC50 was less than 100 nM.

For the molecule `CCc1cc2c(s1)CCOC21CCN(Cc2ccc(NS(=O)(=O)C3CC3)nc2)CC1` [Compound 1069], the IC50 lay in the range of 100 to 500 nM.

`CCc1cc2c(s1)CCOC21CCN(Cc2ccc(NC3(CO)CC3)nc2)CC1` [Compound 1070]: the IC50 fell in the range of 100 to 500 nM.

For the molecule `CCc1cc2c(s1)CCOC21CCN(Cc2ccc(N(C)S(C)(=O)=O)nc2)CC1` [Compound 1071], the IC50 lay within 100 to 500 nM.

On to `CCc1cc2c(s1)CCOC21CCN(Cc2ccc(NC3(COC)CC3)nc2)CC1` [Compound 1072], for which the IC50 was in the range of 100 to 500 nM.

Turning to `CCc1cc2c(s1)CCOC21CCN(Cc2cnc(N[C@H]3CC[C@H](O)CC3)nc2)CC1` [Compound 1073, (1r,4r)-4-((5-((2′-ethyl-6′,7′-dihydrospiro[piperidine-4,4′-thieno[3,2-c]pyran]-1-yl)methyl)pyrimidin-2-yl)amino)cyclohexan-1-ol], the IC50 was less than 100 nM.

Take `CCc1cc2c(s1)CCOC21CCN(Cc2cnc(Nc3cccnc3)nc2)CC1` [Compound 1074]: the IC50 is less than 100 nM.

`CCc1cc2c(s1)CCOC21CCN(Cc2cnc(NCc3cc[nH]c(=O)c3)nc2)CC1` [Compound 1075]: the IC50 is 100 to 500 nM.

`CCc1cc2c(s1)CCOC21CCN(Cc2cnc(NC3CC3OC)nc2)CC1` (stereo not shown) [Compound 1076]: the IC50 was 100 to 500 nM.

In the case of `CCc1cc2c(s1)CCOC21CCN(Cc2cnc(N[C@H](CC)CO)nc2)CC1` [Compound 1077], the IC50 lay within 100 to 500 nM.

In the case of `CCc1cc2c(s1)CCOC21CCN(Cc2cnc(NCCn3cccn3)nc2)CC1` [Compound 1078], the IC50 lay in the range of 100 to 500 nM.

As for `CCc1cc2c(s1)CCOC21CCN(Cc2cn(CC(O)C(C)(C)O)nn2)CC1` (stereo not shown) [Compound 1079, 1-(4-((2′-ethyl-6′,7′-dihydrospiro[piperidine-4,4′-thieno[3,2-c]pyran]-1-yl)methyl)-1H-1,2,3-triazol-1-yl)-3-methylbutane-2,3-diol], the IC50 fell in the range of 100 to 500 nM.

As to `CCc1cc2c(s1)CCOC21CCN(Cc2cn(CCS(N)(=O)=O)nn2)CC1` [Compound 1080], the IC50 is 100 to 500 nM.

Take `CCc1cc2c(s1)CCOC21CCN(Cc2cn(CC(C)(C)S(C)(=O)=O)nn2)CC1` [Compound 1081]: the IC50 was 100 to 500 nM.

As to `CCc1cc2c(s1)CCOC21CCN(Cc2cn(CC3(O)CCCC3)nn2)CC1` [Compound 1082], the IC50 fell in the range of 100 to 500 nM.

For the molecule `CCc1cc2c(s1)CCOC21CCN(Cc2cn(CCS(=O)(=O)NC)nn2)CC1` [Compound 1083], the IC50 was in the range of 500 to 1000 nM.

Turning to `CCc1cc2c(s1)CCOC21CCN(Cc2cn(CC(O)CC)nn2)CC1` (stereo not shown) [Compound 1084], the IC50 is 500 to 1000 nM.

`CCc1cc2c(s1)CCOC21CCN(Cc2cn(CCS(C)(=O)=O)nn2)CC1` [Compound 1085]: the IC50 is 500 to 1000 nM.

For `CCc1cc2c(s1)CCOC21CCN(Cc2cn(CCS(=O)(=O)C3CC3)nn2)CC1` [Compound 1086], the IC50 fell in the range of 500 to 1000 nM.

Consider `CCc1nnc(Cn2cc(CN3CCC4(CC3)OCCc3sc(CC)cc34)nn2)o1` [Compound 1087], for which the IC50 lay in the range of 500 to 1000 nM.

Regarding `CCc1cc2c(s1)CCOC21CCN(Cc2cn(CC(C)S(C)(=O)=O)nn2)CC1` (stereo not shown) [Compound 1088], the IC50 lay within 500 to 1000 nM.

Regarding `CCc1cc2c(s1)CCOC21CCN(Cc2cn(CCS(=O)(=O)CC)nn2)CC1` [Compound 1089], the IC50 lay within 500 to 1000 nM.

Turning to `CCc1cc2c(s1)CCOC21CCN(Cc2cn(CCS(=O)(=O)CC3CC3)nn2)CC1` [Compound 1090], the IC50 fell in the range of 500 to 1000 nM.

In the case of `CCc1cc2c(s1)CCOC21CCN(Cc2cn(CCS(=O)(=O)C3CCOCC3)nn2)CC1` [Compound 1091], the IC50 was in the range of 500 to 1000 nM.

Take `CCc1cc2c(s1)CCOC21CCN(Cc2cn(CC(=O)NCC(C)O)nn2)CC1` (stereo not shown) [Compound 1092]: the IC50 was 500 to 1000 nM.

Regarding `CCc1cc2c(s1)CCOC21CCN(Cc2cn(CCc3csc(N)n3)nn2)CC1` [Compound 1093], the IC50 lay within 500 to 1000 nM.

As to `CCc1cc2c(s1)CCOC21CCN(Cc2cn(C3CC(O)C3(C)C)nn2)CC1` (stereo not shown) [Compound 1094], the IC50 was in the range of 500 to 1000 nM.

For `CCc1cc2c(s1)CCOC21CCN(Cc2cn(CC(=O)NCCO)nn2)CC1` [Compound 1095], the IC50 fell in the range of 500 to 1000 nM.

Regarding `CCc1cc2c(s1)CCOC21CCN(Cc2cn(CC(=O)NCCC(F)(F)F)nn2)CC1` [Compound 1096], the IC50 lay in the range of 500 to 1000 nM.

For `CCc1cc2c(s1)CCOC21CCN(Cc2cn(CC(O)c3cnn(C)c3)nn2)CC1` (stereo not shown) [Compound 1097], the IC50 was 500 to 1000 nM.

On to `CCc1cc2c(s1)CCOC21CCN(Cc2cn([C@H]3CC[C@@H]3O)nn2)CC1` [Compound 1098], for which the IC50 was in the range of 500 to 1000 nM.

Take `CCc1cc2c(s1)CCOC21CCN(Cc2cn(CCCF)nn2)CC1` [Compound 1099]: the IC50 lay in the range of 500 to 1000 nM.

In the case of `CCc1cc2c(s1)CCOC21CCN(Cc2cn(CCC(=O)NCCC(F)(F)F)nn2)CC1` [Compound 1100], the IC50 was in the range of 500 to 1000 nM.

Consider `CCc1cc2c(s1)CCOC21CCN(Cc2cn(C(C)c3nnc(C)o3)nn2)CC1` (stereo not shown) [Compound 1101], for which the IC50 lay in the range of 500 to 1000 nM.

Consider `CCc1cc2c(s1)CCOC21CCN(Cc2cn(CCC(=O)NCC(C)O)nn2)CC1` (stereo not shown) [Compound 1102], for which the IC50 was 500 to 1000 nM.

On to `CCc1cc2c(s1)CCOC21CCN(Cc2cn(CC(O)c3cccnc3)nn2)CC1` (stereo not shown) [Compound 1103], for which the IC50 was 500 to 1000 nM.
